From BigSolDB 2.1

Conditions: in water

solubility (mole fraction) (283.15 K)	solubility (mole fraction) (288.15 K)	solubility (mole fraction) (293.15 K)	solubility (mole fraction) (298.15 K)	solubility (mole fraction) (303.15 K)	solubility (mole fraction) (308.15 K)	solubility (mole fraction) (313.15 K)	solubility (mole fraction) (318.15 K)	solubility (mole fraction) (323.15 K)	solubility (mole fraction) (328.15 K)	solubility (mole fraction) (333.15 K)	Compound
0.0128	0.014	0.0159	0.0189	0.0224	0.0268	0.0323	0.0383	0.0473	0.0584	0.075	O=S(=O)([O-])c1ccc2ccc(S(=O)(=O)[O-])cc2c1.[Na+].[Na+]
0.00323	0.00343	0.00366	0.00402	0.00437	0.00478	0.00523	0.00563	0.00611	0.00657	0.0072	O=S(=O)([O-])c1ccc2cc(S(=O)(=O)[O-])ccc2c1.[Na+].[Na+]
